Laboratory results from patent US20250171457A1, “NITROGEN-CONTAINING HETEROCYCLIC COMPOUND HAVING NRF2 ACTIVATION EFFECT” (CHUGAI SEIYAKU KABUSHIKI KAISHA, priority 2022, published 2025).
pEC50: −log10 of the molar value.

What follows are compounds tested on Nrf2 transcriptional activity (pARE-Luc reporter) in HepG2 cells (assay: In vitro Nrf2 transcriptional activity measurement by ARE-dependent reporter assay in HepG2 cell). Conditions: Homo sapiens; HepG2 cells transfected with pARE-Luc, 4 hours at 37° C.; luciferase activity of Example 1-54 or Example 17-23 at 3.75 μM defined as 100%.
Type: cell-based, human
How it was run: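 Luminescence readout (Bright-Glo) after 4 h, 37° C compound exposure of HepG2 cells carrying the ARE-luciferase vector pGL4.37. Each well converted to % response versus reference compound at 3.75 μM, and EC50 derived from dose-response curves.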
`COCCOC1CN(c2cc(Cl)c(C(=O)N3COc4c(cccc4-c4cc(N5C6CCC5COC6)c(C(=O)O)cc4F)C3)c(Cl)c2)C1` [Compound 6-8, 4-[3-[2,6-Dichloro-4-[3-(2-methoxyethoxy)azetidin-1-yl]benzoyl]-2,4-dihydro-1,3-benzoxazin-8-yl]-5-fluoro-2-(3-oxa-8-azabicyclo[3.2.1]octan-8-yl)benzoic acid] was tested, and the pEC50 was 8.62. Compound `COCCOC1CC2(C1)CN(c1cc(Cl)c(C(=O)N3COc4c(cccc4-c4cc(N5C6CCC5COC6)c(C(=O)O)cc4F)C3)c(Cl)c1)C2` [Compound 6-9, 4-[3-[2,6-Dichloro-4-[6-(2-methoxyethoxy)-2-azaspiro[3.3]heptan-2-yl]benzoyl]-2,4-dihydro-1,3-benzoxazin-8-yl]-5-fluoro-2-(3-oxa-8-azabicyclo[3.2.1]octan-8-yl)benzoic acid] has a pEC50 of 8.66. `O=C(O)c1cc(F)c(-c2cccc3c2OCN(C(=O)c2c(Cl)cc(N4CC5(CC(OC6COC6)C5)C4)cc2Cl)C3)cc1N1C2CCC1COC2` [Compound 6-10, 4-[3-[2,6-Dichloro-4-[6-(oxetan-3-yloxy)-2-azaspiro[3.3]heptan-2-yl]benzoyl]-2,4-dihydro-1,3-benzoxazin-8-yl]-5-fluoro-2-(3-oxa-8-azabicyclo[3.2.1]octan-8-yl)benzoic acid] gave a pEC50 of 8.43. `O=C(O)c1cc(F)c(-c2cccc3c2OCN(C(=O)c2c(Cl)cc(N4CC5(CN(CC6(F)COC6)C5)C4)cc2Cl)C3)cc1N1C2CCC1COC2` [Compound 7-1, 4-[3-[2,6-Dichloro-4-[6-[(3-fluorooxetan-3-yl)methyl]-2,6-diazaspiro[3.3]heptan-2-yl]benzoyl]-2,4-dihydro-1,3-benzoxazin-8-yl]-5-fluoro-2-(3-oxa-8-azabicyclo[3.2.1]octan-8-yl)benzoic acid] was tested, and the pEC50 was 8.32. Compound `COCCN1CC2(C1)CN(c1cc(Cl)c(C(=O)N3COc4c(cccc4-c4cc(N5C6CCC5COC6)c(C(=O)O)cc4F)C3)c(Cl)c1)C2` [Compound 7-3, 4-[3-[2,6-Dichloro-4-[6-(2-methoxyethyl)-2,6-diazaspiro[3.3]heptan-2-yl]benzoyl]-2,4-dihydro-1,3-benzoxazin-8-yl]-5-fluoro-2-(3-oxa-8-azabicyclo[3.2.1]octan-8-yl)benzoic acid] has a pEC50 of 7.74. Compound `O=C(O)c1cc(F)c(-c2cccc3c2OCN(C(=O)c2c(Cl)cc(N4CC5(CCN5CC(F)F)C4)cc2Cl)C3)cc1N1C2CCC1COC2` [Compound 7-4, 4-[3-[2,6-Dichloro-4-[1-(2,2-difluoroethyl)-1,6-diazaspiro[3.3]heptan-6-yl]benzoyl]-2,4-dihydro-1,3-benzoxazin-8-yl]-5-fluoro-2-(3-oxa-8-azabicyclo[3.2.1]octan-8-yl)benzoic acid] has a pEC50 of 8.37. Work on `O=C(O)c1cc(F)c(-c2cccc3c2OCN(C(=O)c2c(Cl)cc(N4CC5(CN(CC(F)(F)F)C5)C4)cc2Cl)C3)cc1N1C2CCC1COC2` [Compound 7-5, 4-[3-[2,6-Dichloro-4-[6-(2,2,2-trifluoroethyl)-2,6-diazaspiro[3.3]heptan-2-yl]benzoyl]-2,4-dihydro-1,3-benzoxazin-8-yl]-5-fluoro-2-(3-oxa-8-azabicyclo[3.2.1]octan-8-yl)benzoic acid] yielded a pEC50 of 8.43. `COCCN1CCC12CN(c1cc(Cl)c(C(=O)N3COc4c(cccc4-c4cc(N5C6CCC5COC6)c(C(=O)O)cc4F)C3)c(Cl)c1)C2` [Compound 7-6, 4-[3-[2,6-Dichloro-4-[1-(2-methoxyethyl)-1,6-diazaspiro[3.3]heptan-6-yl]benzoyl]-2,4-dihydro-1,3-benzoxazin-8-yl]-5-fluoro-2-(3-oxa-8-azabicyclo[3.2.1]octan-8-yl)benzoic acid] was tested, and the pEC50 was 8.27. With `CC(C)(C#N)CN1CC2(C1)CN(c1cc(Cl)c(C(=O)N3COc4c(cccc4-c4cc(N5C6CCC5COC6)c(C(=O)O)cc4F)C3)c(Cl)c1)C2` [Compound 7-7, 4-[3-[2,6-Dichloro-4-[6-(2-cyano-2-methylpropyl)-2,6-diazaspiro[3.3]heptan-2-yl]benzoyl]-2,4-dihydro-1,3-benzoxazin-8-yl]-5-fluoro-2-(3-oxa-8-azabicyclo[3.2.1]octan-8-yl)benzoic acid] the pEC50 was 8.47. `COCCN1CCN(c2cc(Cl)c(C(=O)N3COc4c(cccc4-c4cc(N5C6CCC5COC6)c(C(=O)O)cc4F)C3)c(Cl)c2)[C@@H](C)C1` [Compound 7-8, 4-[3-[2,6-Dichloro-4-[(2S)-4-(2-methoxyethyl)-2-methylpiperazin-1-yl]benzoyl]-2,4-dihydro-1,3-benzoxazin-8-yl]-5-fluoro-2-(3-oxa-8-azabicyclo[3.2.1]octan-8-yl)benzoic acid] was tested, and the pEC50 was 8.49. `COCCN1CCN(c2cc(Cl)c(C(=O)N3COc4c(cccc4-c4cc(N5C6CCC5COC6)c(C(=O)O)cc4F)C3)c(Cl)c2)[C@H](C)C1` [Compound 7-9, 4-[3-[2,6-Dichloro-4-[(2R)-4-(2-methoxyethyl)-2-methylpiperazin-1-yl]benzoyl]-2,4-dihydro-1,3-benzoxazin-8-yl]-5-fluoro-2-(3-oxa-8-azabicyclo[3.2.1]octan-8-yl)benzoic acid] was tested, and the pEC50 was 8.08. In the case of `COCCN1CC2CC(C1)N2c1cc(Cl)c(C(=O)N2COc3c(cccc3-c3cc(N4C5CCC4COC5)c(C(=O)O)cc3F)C2)c(Cl)c1` [Compound 7-10, 4-[3-[2,6-Dichloro-4-[3-(2-methoxyethyl)-3,6-diazabicyclo[3.1.1]heptan-6-yl]benzoyl]-2,4-dihydro-1,3-benzoxazin-8-yl]-5-fluoro-2-(3-oxa-8-azabicyclo[3.2.1]octan-8-yl)benzoic acid], the pEC50 was 7.57. For `COCCN1C2CCC1CN(c1cc(Cl)c(C(=O)N3COc4c(cccc4-c4cc(N5C6CCC5COC6)c(C(=O)O)cc4F)C3)c(Cl)c1)C2` [Compound 7-11, 4-[3-[2,6-Dichloro-4-[8-(2-methoxyethyl)-3,8-diazabicyclo[3.2.1]octan-3-yl]benzoyl]-2,4-dihydro-1,3-benzoxazin-8-yl]-5-fluoro-2-(3-oxa-8-azabicyclo[3.2.1]octan-8-yl)benzoic acid], the pEC50 was 8.49. `COCCN1CC2CCC(C1)N2c1cc(Cl)c(C(=O)N2COc3c(cccc3-c3cc(N4C5CCC4COC5)c(C(=O)O)cc3F)C2)c(Cl)c1` [Compound 7-12, 4-[3-[2,6-Dichloro-4-[3-(2-methoxyethyl)-3,8-diazabicyclo[3.2.1]octan-8-yl]benzoyl]-2,4-dihydro-1,3-benzoxazin-8-yl]-5-fluoro-2-(3-oxa-8-azabicyclo[3.2.1]octan-8-yl)benzoic acid] gave a pEC50 of 8.64. With `O=C(O)c1cc(F)c(-c2cccc3c2OCN(C(=O)c2c(Cl)cc(N4CC5CCC(C4)N5CC(F)F)cc2Cl)C3)cc1N1C2CCC1COC2` [Compound 7-13, 4-[3-[2,6-Dichloro-4-[8-(2,2-difluoroethyl)-3,8-diazabicyclo[3.2.1]octan-3-yl]benzoyl]-2,4-dihydro-1,3-benzoxazin-8-yl]-5-fluoro-2-(3-oxa-8-azabicyclo[3.2.1]octan-8-yl)benzoic acid] the pEC50 was 8.24. Compound `COCCN1C2CC1CN(c1cc(Cl)c(C(=O)N3COc4c(cccc4-c4cc(N5C6CCC5COC6)c(C(=O)O)cc4F)C3)c(Cl)c1)C2` [Compound 7-14, 4-[3-[2,6-Dichloro-4-[6-(2-methoxyethyl)-3,6-diazabicyclo[3.1.1]heptan-3-yl]benzoyl]-2,4-dihydro-1,3-benzoxazin-8-yl]-5-fluoro-2-(3-oxa-8-azabicyclo[3.2.1]octan-8-yl)benzoic acid] has a pEC50 of 7.62. Work on `O=C(O)c1cc(F)c(-c2cccc3c2OCN(C(=O)c2c(Cl)cc(N4CC5CCC(C4)N5CC4(F)COC4)cc2Cl)C3)cc1N1C2CCC1COC2` [Compound 7-15, 4-[3-[2,6-Dichloro-4-[8-[(3-fluorooxetan-3-yl)methyl]-3,8-diazabicyclo[3.2.1]octan-3-yl]benzoyl]-2,4-dihydro-1,3-benzoxazin-8-yl]-5-fluoro-2-(3-oxa-8-azabicyclo[3.2.1]octan-8-yl)benzoic acid] yielded a pEC50 of 8.60. `COCCN1C[C@H]2CC[C@@H]1CN2c1cc(Cl)c(C(=O)N2COc3c(cccc3-c3cc(N4C5CCC4COC5)c(C(=O)O)cc3F)C2)c(Cl)c1` [Compound 7-16, 4-[3-[2,6-Dichloro-4-[(1R,4R)-5-(2-methoxy-ethyl)-2,5-diazabicyclo[2.2.2]octan-2-yl]benzoyl]-2,4-dihydro-1,3-benzoxazin-8-yl]-5-fluoro-2-(3-oxa-8-azabicyclo[3.2.1]octan-8-yl)benzoic acid] was tested, and the pEC50 was 8.13. `COCCN1C[C@@H]2CC[C@H]1CN2c1cc(Cl)c(C(=O)N2COc3c(cccc3-c3cc(N4C5CCC4COC5)c(C(=O)O)cc3F)C2)c(Cl)c1` [Compound 7-17, 4-[3-[2,6-Dichloro-4-[(1S,4S)-5-(2-methoxy-ethyl)-2,5-diazabicyclo[2.2.2]octan-2-yl]benzoyl]-2,4-dihydro-1,3-benzoxazin-8-yl]-5-fluoro-2-(3-oxa-8-azabicyclo[3.2.1]octan-8-yl)benzoic acid] showed a pEC50 of 8.05. Work on `COCC(COC)N1C2CCC1CN(c1cc(Cl)c(C(=O)N3COc4c(cccc4-c4cc(N5C6CCC5COC6)c(C(=O)O)cc4F)C3)c(Cl)c1)C2` [Compound 7-18, 4-[3-[2,6-Dichloro-4-[8-(1,3-dimethoxypropan-2-yl)-3,8-diazabicyclo[3.2.1]octan-3-yl]benzoyl]-2,4-dihydro-1,3-benzoxazin-8-yl]-5-fluoro-2-(3-oxa-8-azabicyclo[3.2.1]octan-8-yl)benzoic acid] yielded a pEC50 of 8.77. `COCCN1CCC2(C1)CN(c1cc(Cl)c(C(=O)N3COc4c(cccc4-c4cc(N5C6CCC5COC6)c(C(=O)O)cc4F)C3)c(Cl)c1)C2` [Compound 8-1, 4-[3-[2,6-Dichloro-4-[7-(2-methoxyethyl)-2,7-diazaspiro[3.4]octan-2-yl]benzoyl]-2,4-dihydro-1,3-benzoxazin-8-yl]-5-fluoro-2-(3-oxa-8-azabicyclo[3.2.1]octan-8-yl)benzoic acid] was tested, and the pEC50 was 8.80.
